The target of this experiment is T1, human NaPi-IIb (Homo sapiens, UniProt O95436).
T1 construct: expressed in transfected cells
T1 sequence (O95436 1-690): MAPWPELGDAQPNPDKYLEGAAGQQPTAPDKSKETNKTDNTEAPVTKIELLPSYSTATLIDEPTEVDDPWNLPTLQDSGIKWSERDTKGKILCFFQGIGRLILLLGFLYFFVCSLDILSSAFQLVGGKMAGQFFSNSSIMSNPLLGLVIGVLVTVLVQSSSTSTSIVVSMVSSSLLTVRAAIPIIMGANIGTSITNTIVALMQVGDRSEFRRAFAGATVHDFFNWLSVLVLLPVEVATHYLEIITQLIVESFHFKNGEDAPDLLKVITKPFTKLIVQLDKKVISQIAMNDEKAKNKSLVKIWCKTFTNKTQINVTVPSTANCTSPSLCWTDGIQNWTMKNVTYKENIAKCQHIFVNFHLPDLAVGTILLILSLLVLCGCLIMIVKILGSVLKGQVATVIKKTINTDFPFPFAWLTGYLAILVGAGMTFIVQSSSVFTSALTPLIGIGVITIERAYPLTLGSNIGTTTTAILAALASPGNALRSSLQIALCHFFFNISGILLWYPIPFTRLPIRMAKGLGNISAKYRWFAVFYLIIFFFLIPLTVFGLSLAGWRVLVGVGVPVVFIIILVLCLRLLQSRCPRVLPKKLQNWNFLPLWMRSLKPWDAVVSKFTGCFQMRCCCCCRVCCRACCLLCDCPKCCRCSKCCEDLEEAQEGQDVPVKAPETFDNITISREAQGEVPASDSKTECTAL
As to the kind of experiment: Inhibitory effect on 33PO4 uptake into human NaPi-IIb-expressing CHO cells. Format: cell-based. In short, it runs like this:
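Uptake of ³³PO4 was measured by scintillation counting after ice-cold buffer A washes. Cells were CHO stably expressing human NaPi-IIb, seeded overnight, and exposed to ³³PO4 in buffer A at room temperature.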

The mark [1] stands for this setting: read-out: IC50 against 33PO4 uptake into human NaPi-IIb-expressing cells.

For orientation: IC50 means the concentration needed to halve the response being measured.

Molecules are shown by their SMILES. Structures can show the parent of a compound that is named as a salt. Where two headings read alike, the source gives them in different places.

In the case of `Cc1c(C#N)ncnc1-c1cc(C(F)(F)F)ccc1NC(=O)C1=C(O)C2(CCC2)N(C)N(Cc2ccc(OCCN3CCOCC3)c(F)c2F)C1=O` [Example 283], under “read-out: IC50”, the concentration for half-maximal inhibition (IC50) was 17.7 µM. Still for that read-out and setting: then `CC(C)[C@@H]1C(O)=C(C(=O)Nc2ccc(Cl)cc2-c2ccc(C(F)(F)F)nc2)C(=O)N(Cc2cccc(F)c2F)N1C` [Example 251], with 7.6 µM. Consider `CN1N(Cc2ccc(OCCN3CCOCC3)c(F)c2F)C(=O)C(C(=O)Nc2ccc(C(F)(F)F)cc2-c2ccc(C(F)(F)F)nc2)=C(O)C12CCCC2` [Example 287], for which, under “read-out: IC50”, the IC50 was 8 µM. On the same count and under the same terms, the result for `COc1cccc(-c2cc(C(F)(F)F)ccc2NC(=O)C2=C(O)[C@@]3(C)CCCN3N(Cc3ccc(C#CCOCCCCO)c(F)c3F)C2=O)c1OC` [Example 123, (4aR)-1-[[2,3-Difluoro-4-[3-(4-hydroxybutoxy)prop-1-ynil]phenyl]methyl]-N-[2-(2,3-dimethoxyphenyl)-4-(trifluoromethyl)phenyl]-4-hydroxy-4a-methyl-2-oxo-6,7-dihydro-5H-pyrrolo[1,2-b]pyridazine-3-carboxamide] reads 14.8 µM. For the molecule `COC(=O)CN(C)CCOc1ccc(CN2C(=O)C(C(=O)Nc3ccc(C(F)(F)F)cc3-c3cc(C(F)(F)F)ncn3)=C(O)C3(CCCC3)N2C)c(F)c1F` [Example 368], under setting [1], the IC50 is 14.7 µM. As to `CSc1ccc(-c2cc(C(F)(F)F)ccc2NC(=O)C2=C(O)[C@@]3(C)CCCN3N(Cc3ccc(OCCCCOC[C@H](O)CO)c(F)c3F)C2=O)cn1` [Example 120, (4aR)-1-[[4-[4-[(2R)-2,3-Dihydroxypropoxy]butoxy]-2,3-difluorophenyl]methyl]-4-hydroxy-4a-methyl-N-[2-(6-methylsulfanylpyridin-3-v1)-4-(trifluoromethyl)phenyl]-2-oxo-6,7-dihydro-5H-pyrrolo[1,2-b]pyridazine-3-carboxamide], the concentration for half-maximal inhibition (IC50) (read-out: IC50) was determined as 20.5 µM. Same read-out and setting: then `C[C@]12CCCN1N(Cc1c(Cl)cc(OCCN3CCOCC3)cc1Cl)C(=O)C(C(=O)Nc1ccc(C(F)(F)F)nc1-c1ccc(C(F)(F)F)nc1)=C2O` [Example 148, (4aR)-1-[[2,6-Dichloro-4-(2-morpholin-4-ylethoxy)phenyl]methyl]-4-hydroxy-4a-methyl-2-oxo-N-[6-(trifluoromethyl)-2-[6-(trifluoromethyl)pyridin-3-yl]pyridin-3-yl]-6,7-dihydro-5H-pyrrolo[1,2-b]pyridazine-3-carboxamide hydrochloride], with 8.5 µM.

In the case of `C[C@]12CCCN1N(Cc1cccc(C#N)c1)C(=O)C(C(=O)Nc1ccc(C(F)(F)F)cc1-c1cc(C(F)(F)F)ncn1)=C2O` [Example 179], under “read-out: IC50”, the IC50 was determined as 18.9 µM. With `CN1N(Cc2ccc(OCCN3CCN(CCOCCO)CC3)c(F)c2F)C(=O)C(C(=O)Nc2ccc(C(F)(F)F)cc2-c2cc(C(F)(F)F)ncn2)=C(O)C12CCC2` [Example 361], the IC50 under setting [1] was determined as 20.2 µM. As for `C[C@@]12CCCN1N(Cc1ccc(OCCN3CCOCC3)c(F)c1F)C(=O)C(C(=O)Nc1ccc(Cl)cc1-c1cc(C(F)(F)F)ncn1)=C2O` [Example 107], the IC50 (read-out: IC50) turned out to be 25.9 µM.

With `Cc1c(-c2cc(C(F)(F)F)ccc2NC(=O)C2=C(O)C3(CCCC3)N(C)N(Cc3ccc(OCCN4CCOCC4)c(F)c3F)C2=O)ncnc1C(F)(F)F` [Example 290], the half-inhibitory concentration (IC50) (read-out: IC50) was determined as 7 µM. The same measure, in the same setting: then `CN1N(Cc2cccc(F)c2F)C(=O)C(C(=O)Nc2cc(F)c(Br)c(F)c2)=C(O)C12CCC2` [Example 257], with 6 µM. `C[C@]12CCCN1N(Cc1cccc(F)c1F)C(=O)C(C(=O)Nc1ccc(C(F)(F)F)cc1-c1cncc(C#N)c1)=C2O` [Example 82]: the half-maximal inhibitory concentration (IC50) (read-out: IC50) turned out to be 11.1 µM.

With `C[C@]12CCCN1N(Cc1ccc(F)cc1)C(=O)C(C(=O)Nc1ccc(C(F)(F)F)cc1-c1cc(C(F)(F)F)ncn1)=C2O` [Example 208], the half-maximal inhibitory concentration (IC50) (read-out: IC50) is 6.6 µM. `CN1N(Cc2ccc(OCCNCCS(=O)(=O)O)c(F)c2F)C(=O)C(C(=O)Nc2ccc(C(F)(F)F)cc2-c2cc(C(F)(F)F)ncn2)=C(O)C12CCCC2` [Example 435]: the 50% inhibitory concentration (IC50) under setting [1] came to 17.1 µM. `C[C@]12CCCN1N(Cc1ccc(OCCN3CCOCC3)c(F)c1F)C(=O)C(C(=O)Nc1ccc(C(F)(F)F)cc1-c1ccc(C(F)(F)F)nc1)=C2O` [Example 161]: the concentration for half-maximal inhibition (IC50) (read-out: IC50) amounted to 11.5 µM. Still for that read-out and setting: then `CN1N(Cc2cccc(F)c2F)C(=O)C(C(=O)Nc2ccc(C(F)(F)F)nc2-c2cncc(C(F)(F)F)c2)=C(O)C1(C)C` [Example 306], with 8.4 µM; and `CSc1cc(-c2cc(C(F)(F)F)ccc2NC(=O)C2=C(O)[C@@]3(C)CCCN3N(Cc3cccc(F)c3F)C2=O)cnc1C#N` [Example 113, (4aR)—N-[2-(6-Cyano-5-methylsulfanylpyridin-3-yl)-4-(trifluoromethyl)phenyl]-1-[(2,3-difluorophenyl)methyl]-4-hydroxy-4a-methyl-2-oxo-6,7-dihydro-5H-pyrrolo[1,2-b]pyridazine-3-carboxamide], with 15.5 µM; and `C[C@]12CCCN1N(Cc1c(Cl)cc(OCCN3CCOCC3)cc1Cl)C(=O)C(C(=O)Nc1cnc(C(F)(F)F)nc1-c1ccc(C(F)(F)F)nc1)=C2O` [Example 146, (4aR)-1-[[2,6-Dichloro-4-(2-morpholin-4-ylethoxy)phenyl]methyl]-4-hydroxy-4a-methyl-2-oxo-N-[2-(trifluoromethyl)-4-[6-(trifluoromethyl)pyridin-3-yl]pyrimidin-5-yl]-6,7-dihydro-5H-pyrrolo[1,2-b]pyridazine-3-carboxamide hydrochloride], with 10.2 µM.

For `CN1N(Cc2cccc(F)c2F)C(=O)C(C(=O)Nc2ccc(Br)c(C(F)(F)F)n2)=C(O)C12CCC2` [Example 258], the half-inhibitory concentration (IC50) (read-out: IC50) is 2.7 µM. Same read-out and setting: then `C[C@]12CCCN1N(Cc1cccc(F)c1F)C(=O)C(C(=O)Nc1ccc(C(F)(F)F)cc1-c1ncnc(C#N)c1Cl)=C2O` [Example 23], with 6.9 µM.

As for `CN1N(Cc2ccc(OCCCCCOC[C@H](O)CO)c(F)c2F)C(=O)C(C(=O)Nc2ccc(C(F)(F)F)cc2-c2cc(C(F)(F)F)ncn2)=C(O)C12CCC2` [Example 391], the IC50 under setting [1] was 7 µM. As for `CN(CCOc1ccc(CN2C(=O)C(C(=O)Nc3ccc(C(F)(F)F)cc3-c3cc(C(F)(F)F)ncn3)=C(O)C3(CCC3)N2C)c(F)c1F)C1CCOC1` (stereo not shown) [Example 338, 6-[[2,3-Difluoro-4-[2-[methyl(oxolan-3-yl)amino]ethoxy]phenyl]methyl]-9-hydroxy-5-methyl-7-oxo-N-[4-(trifluoromethyl)-2-[6-(trifluoromethyl)pyrimidin-4-yl]phenyl]-5,6-diazaspiro[3.5]non-8-ene-8-carboxamide], the IC50 (read-out: IC50) turned out to be 13.4 µM. `CN1N(Cc2ccc(OCCOCCNC(=O)[C@@H](O)[C@H](O)[C@@H](O)[C@@H](O)CO)c(F)c2F)C(=O)C(C(=O)Nc2ccc(C(F)(F)F)cc2-c2cc(C(F)(F)F)ncn2)=C(O)C12CCCC2` [Example 427]: the IC50 under setting [1] came out at 17.4 µM. As for `CN1[C@@H](C(C)(C)C)C(O)=C(C(=O)Nc2cccc(C(F)(F)F)n2)C(=O)N1Cc1cccc(F)c1F` [Example 244], under “read-out: IC50”, the 50% inhibitory concentration (IC50) was 7.3 µM. Still for that read-out and setting: then `CN1[C@@H](C(C)(C)C)C(O)=C(C(=O)Nc2ccc(Cl)cc2-c2ccc(C(F)(F)F)nc2)C(=O)N1Cc1cccc(F)c1F` [Example 239], with 8.5 µM.

As to `C[C@]12CCCN1N(Cc1cccc(F)c1F)C(=O)C(C(=O)Nc1ccc(Cl)cc1-c1ccc(C(F)(F)F)nc1)=C2O` [Example 86], the IC50 (read-out: IC50) worked out at 5.3 µM. Still for that read-out and setting: then `CN1[C@@H](C(C)(C)C)C(O)=C(C(=O)Nc2ccc(C(F)(F)F)cc2C(F)(F)F)C(=O)N1Cc1ccc(OCCN2CCOCC2)c(F)c1F` [Example 277], with 17.8 µM.
